# Data reported in PubChem BioAssay (NCI).
#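 Assay format: 96-well plates, 48-hour exposure. GI50: concentration for 50% inhibition of growth. TGI is the concentration that stops growth completely.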
# What was measured:
# Experiment in all cases: growth of human tumour cells (NCI), 48 h
# RXF 393 renal = system: RXF 393 renal
# A549 NSCLC = system: A549 NSCLC
# PC-3 prostate = system: PC-3 prostate
# MDA-MB-231 breast = system: MDA-MB-231 breast
# ACHN renal = system: ACHN renal
# MOLT-4 leukemia = system: MOLT-4 leukemia
# OVCAR-5 ovarian = system: OVCAR-5 ovarian
# MDA-N = system: MDA-N
# NCI/ADR-RES ovarian = system: NCI/ADR-RES ovarian
# OVCAR-4 ovarian = system: OVCAR-4 ovarian
# HCT-116 colon = system: HCT-116 colon
# SNB-75 CNS = system: SNB-75 CNS
# KM12 colon = system: KM12 colon
# OVCAR-8 ovarian = system: OVCAR-8 ovarian
# SNB-19 CNS = system: SNB-19 CNS
# A498 renal = system: A498 renal
# HT29 colon = system: HT29 colon
# SF-295 CNS = system: SF-295 CNS
# COLO 205 colon = system: COLO 205 colon
# LOX IMVI melanoma = system: LOX IMVI melanoma
# TK-10 renal = system: TK-10 renal
# 786-0 renal = system: 786-0 renal
# UO-31 renal = system: UO-31 renal
# MCF7 breast = system: MCF7 breast
# SR leukemia = system: SR leukemia
# RPMI-8226 leukemia = system: RPMI-8226 leukemia
# HL-60(TB) leukemia = system: HL-60(TB) leukemia
# SK-MEL-5 melanoma = system: SK-MEL-5 melanoma
# EKVX NSCLC = system: EKVX NSCLC
# MDA-MB-435 = system: MDA-MB-435
# SK-MEL-2 melanoma = system: SK-MEL-2 melanoma
# M14 melanoma = system: M14 melanoma
# CCRF-CEM leukemia = system: CCRF-CEM leukemia
# HOP-92 NSCLC = system: HOP-92 NSCLC
# T-47D breast = system: T-47D breast
# SF-268 CNS = system: SF-268 CNS
# U251 CNS = system: U251 CNS
# SW-620 colon = system: SW-620 colon
# CAKI-1 renal = system: CAKI-1 renal
# SF-539 CNS = system: SF-539 CNS
# UACC-257 melanoma = system: UACC-257 melanoma
# NCI-H460 lung = system: NCI-H460 lung
# SK-MEL-28 melanoma = system: SK-MEL-28 melanoma
# HS 578T breast = system: HS 578T breast
# HCT-15 colon = system: HCT-15 colon
# K-562 leukemia = system: K-562 leukemia
# UACC-62 melanoma = system: UACC-62 melanoma
# SK-OV-3 ovarian = system: SK-OV-3 ovarian
# HOP-62 NSCLC = system: HOP-62 NSCLC
# HCC-2998 colon = system: HCC-2998 colon
# OVCAR-3 ovarian = system: OVCAR-3 ovarian
# NCI-H23 lung = system: NCI-H23 lung
# MALME-3M melanoma = system: MALME-3M melanoma
# BT-549 breast = system: BT-549 breast
# NCI-H522 lung = system: NCI-H522 lung
# NCI-H226 lung = system: NCI-H226 lung
# IGROV1 ovarian = system: IGROV1 ovarian
# DU-145 prostate = system: DU-145 prostate
compound,measurement,setting,value
CO[C@H]1[C@@H](O)[C@@H](C)O[C@@H](O[C@H]2CC[C@@]3(C)[C@H](CC[C@@H]4[C@@H]3CC[C@]3(C)[C@@H](C5=CC(=O)OC5)CC[C@]43O)C2)[C@@H]1O,TGI,RXF 393 renal,6.17 nM
same,TGI,A549 NSCLC,4.87 nM
same,TGI,PC-3 prostate,17.1 nM
same,TGI,MDA-MB-231 breast,269 nM
same,TGI,ACHN renal,10.2 nM
same,TGI,MOLT-4 leukemia,436 nM
same,TGI,OVCAR-5 ovarian,93.2 nM
same,TGI,MDA-N,50.4 nM
same,TGI,NCI/ADR-RES ovarian,27.6 nM
same,TGI,OVCAR-4 ovarian,32.2 nM
same,TGI,HCT-116 colon,27.5 nM
same,TGI,SNB-75 CNS,27.1 nM
same,TGI,KM12 colon,191 nM
same,TGI,OVCAR-8 ovarian,44.4 nM
same,TGI,SNB-19 CNS,211 nM
same,TGI,A498 renal,813 nM
same,TGI,HT29 colon,50.4 nM
same,TGI,SF-295 CNS,157 nM
same,TGI,COLO 205 colon,221 nM
same,TGI,LOX IMVI melanoma,45.5 nM
same,TGI,TK-10 renal,20.1 nM
same,TGI,786-0 renal,10 nM
same,TGI,UO-31 renal,10.8 nM
same,TGI,MCF7 breast,1100 nM
same,TGI,SR leukemia,483 nM
same,GI50,RPMI-8226 leukemia,7.81 nM
same,TGI,RPMI-8226 leukemia,25000 nM
same,TGI,HL-60(TB) leukemia,11.9 nM
same,TGI,SK-MEL-5 melanoma,34.2 nM
same,TGI,EKVX NSCLC,10.6 nM
same,TGI,MDA-MB-435,69.3 nM
same,TGI,SK-MEL-2 melanoma,53.8 nM
same,TGI,M14 melanoma,47.9 nM
same,TGI,CCRF-CEM leukemia,370 nM
same,TGI,HOP-92 NSCLC,68.5 nM
same,TGI,T-47D breast,222 nM
same,TGI,SF-268 CNS,36.6 nM
same,TGI,U251 CNS,41.5 nM
same,TGI,SW-620 colon,2510 nM
same,TGI,CAKI-1 renal,12.8 nM
same,TGI,SF-539 CNS,24.7 nM
same,TGI,UACC-257 melanoma,44.6 nM
same,TGI,NCI-H460 lung,6.25 nM
same,TGI,SK-MEL-28 melanoma,1010 nM
same,TGI,HS 578T breast,31 nM
same,TGI,HCT-15 colon,41.9 nM
same,GI50,K-562 leukemia,6.33 nM
same,TGI,K-562 leukemia,371 nM
same,TGI,UACC-62 melanoma,22.8 nM
same,TGI,SK-OV-3 ovarian,49.1 nM
same,TGI,HOP-62 NSCLC,9.43 nM
same,TGI,HCC-2998 colon,173 nM
same,TGI,OVCAR-3 ovarian,13 nM
same,GI50,NCI-H23 lung,< 2.5 nM
same,TGI,NCI-H23 lung,6.75 nM
same,TGI,MALME-3M melanoma,9.02 nM
same,TGI,BT-549 breast,23.6 nM
same,TGI,NCI-H522 lung,19.4 nM
same,TGI,NCI-H226 lung,135 nM
same,TGI,IGROV1 ovarian,84.8 nM
same,TGI,DU-145 prostate,7.29 nM
